These results are taken from ChEMBL document CHEMBL1144260, “Hybridization dependent cleavage of internally modified disulfide-peptide nucleic acids” (Bioorg Med Chem Lett, 2005).

What all share (type): functional
Test [1] has as its system Nucleic Acid. As to the kind of experiment: Percentage of cleavage in single stranded peptide nucleic acid was measured after treating with compound for 30 min; selectivity factor=0.7; PNA:DNA=5a:6.
Test [2] deals with Nucleic Acid. As to the kind of experiment: Percentage of cleavage in single stranded peptide nucleic acid (PNA) DNA duplex was measured after treating with compound for 30 min; selectivity factor=0.7; PNA:DNA=5a:6.
The subject of test [3] is Nucleic Acid. As to the kind of experiment: Percentage of cleavage in single stranded peptide nucleic acid was measured after treating with compound for 30 min; selectivity factor=1.6; PNA:DNA=5a:6.
The subject of test [4] is Nucleic Acid. As to the kind of experiment: Percentage of cleavage in single stranded peptide nucleic acid (PNA) DNA duplex was measured after treating with compound for 30 min; selectivity factor=1.6; PNA:DNA=5a:6.
Test [5] concerns Nucleic Acid. In words: Percentage of cleavage in single stranded peptide nucleic acid was measured after treating with compound for 2 min; selectivity factor>1; PNA:DNA=5a:6.
For test [6], the system named is Nucleic Acid. In words: Percentage of cleavage in single stranded peptide nucleic acid was measured after treating with compound for 2 min; selectivity factor>/=1; PNA:DNA=5a:6b.
For test [7], the system named is Nucleic Acid. As to the kind of experiment: Percentage of cleavage in single stranded peptide nucleic acid was measured after treating with compound for 20 min; selectivity factor=22.2; PNA:DNA=5c:8b.
The test system of test [8] is Nucleic Acid. In words: Percentage of cleavage in single stranded peptide nucleic acid was measured after treating with compound for 20 min; selectivity factor=25.7; PNA:DNA=5c:8a.
Test [9] relates to Nucleic Acid. As to the kind of experiment: Percentage of cleavage in single stranded peptide nucleic acid (PNA) DNA duplex was measured after treating with compound for 2 min; selectivity factor>1; PNA:DNA= 5a:6.
For test [10], the system named is Nucleic Acid. In words: Percentage of cleavage in single stranded peptide nucleic acid (PNA) DNA duplex was measured after treating with compound for 2 min; selectivity factor>/=1; PNA:DNA=5a:6b.
Test [11] concerns Nucleic Acid. As to the kind of experiment: Percentage of cleavage in single stranded peptide nucleic acid (PNA) DNA duplex was measured after treating with compound for 20 min; selectivity factor=17.3; PNA:DNA=5b:7.
The subject of test [12] is Nucleic Acid. As to the kind of experiment: Percentage of cleavage in single stranded peptide nucleic acid (PNA) DNA duplex was measured after treating with compound for 20 min; selectivity factor=2.9; PNA:DNA=5b:7b.
In test [13] the test system is Nucleic Acid. In words: Percentage of cleavage in single stranded peptide nucleic acid (PNA) DNA duplex was measured after treating with compound for 20 min; selectivity factor=57.1; PNA:DNA=5c:8.
In test [14] the test system is Nucleic Acid. As to the kind of experiment: Percentage of cleavage in single stranded peptide nucleic acid (PNA) DNA duplex was measured after treating with compound for 20 min; selectivity factor=7.4; PNA:DNA=5b:7a.
Test [15] relates to Nucleic Acid. In words: Percentage of cleavage in single stranded peptide nucleic acid (PNA) DNA duplex was measured after treating with compound for 20 min; selectivity factor=22.2; PNA:DNA=5c:8b.
The test system of test [16] is Nucleic Acid. As to the kind of experiment: Percentage of cleavage in single stranded peptide nucleic acid (PNA) DNA duplex was measured after treating with compound for 20 min; selectivity factor=25.7; PNA:DNA=5c:8a.
Test [17] has as its system Nucleic Acid. As to the kind of experiment: Percentage of cleavage in single stranded peptide nucleic acid was measured after treating with compound for 20 min; selectivity factor=17.3; PNA:DNA=5b:7.
Test [18] deals with Nucleic Acid. As to the kind of experiment: Percentage of cleavage in single stranded peptide nucleic acid was measured after treating with compound for 20 min; selectivity factor=2.9; PNA:DNA=5b:7b.
In test [19] the test system is Nucleic Acid. In words: Percentage of cleavage in single stranded peptide nucleic acid was measured after treating with compound for 20 min; selectivity factor=57.1; PNA:DNA=5c:8.
Test [20] deals with Nucleic Acid. In words: Percentage of cleavage in single stranded peptide nucleic acid was measured after treating with compound for 20 min; selectivity factor=7.4; PNA:DNA=5b:7a.
Test [21] relates to Nucleic Acid. As to the kind of experiment: Percentage of cleavage in single stranded peptide nucleic acid (PNA) DNA duplex was measured after treating with compound for 30 min; selectivity factor=10.2; PNA:DNA=5a:6.
Test [22] deals with Nucleic Acid. As to the kind of experiment: Percentage of cleavage in single stranded peptide nucleic acid was measured after treating with compound for 30 min; selectivity factor=10.2; PNA:DNA=5a:6.
Test [23] concerns Nucleic Acid. In words: Percentage of cleavage in single stranded peptide nucleic acid was measured after treating with compound for 10 min; selectivity factor=0.6; PNA:DNA=5a:6.
The subject of test [24] is Nucleic Acid. In words: Percentage of cleavage in single stranded peptide nucleic acid (PNA) DNA duplex was measured after treating with compound for 10 min; selectivity factor=0.6; PNA:DNA=5a:6.
Test [25] concerns Nucleic Acid. As to the kind of experiment: Percentage of cleavage in single stranded peptide nucleic acid was measured after treating with compound for 2 min; selectivity factor=1.5; PNA:DNA=5a:6.
The subject of test [26] is Nucleic Acid. As to the kind of experiment: Percentage of cleavage in single stranded peptide nucleic acid (PNA) DNA duplex was measured after treating with compound for 2 min; selectivity factor=1.5; PNA:DNA=5a:6.
Test [27] deals with Nucleic Acid. As to the kind of experiment: Percentage of cleavage in single stranded peptide nucleic acid was measured after treating with compound for 30 min; selectivity factor=1; PNA:DNA=5a:6.
For test [28], the system named is Nucleic Acid. As to the kind of experiment: Percentage of cleavage in single stranded peptide nucleic acid (PNA) DNA duplex was measured after treating with compound for 30 min; selectivity factor=1; PNA:DNA=5a:6.
Test [29] has as its system Nucleic Acid. In words: Percentage of cleavage in single stranded peptide nucleic acid was measured after treating with compound for 300 min; selectivity factor=10.1; PNA:DNA=5b:7.
Test [30] concerns Nucleic Acid. In words: Percentage of cleavage in single stranded peptide nucleic acid was measured after treating with compound for 300 min; selectivity factor=2.8; PNA:DNA=5c:8a.
The test system of test [31] is Nucleic Acid. As to the kind of experiment: Percentage of cleavage in single stranded peptide nucleic acid was measured after treating with compound for 300 min; selectivity factor=23.8; PNA:DNA=5a:6.
Test [32] has as its system Nucleic Acid. In words: Percentage of cleavage in single stranded peptide nucleic acid (PNA)-DNA duplex was measured after treating with compound for 300 min; selectivity factor=10.1; PNA:DNA=5b:7.
Test [33] deals with Nucleic Acid. In words: Percentage of cleavage in single stranded peptide nucleic acid (PNA) DNA duplex was measured after treating with compound for 300 min; selectivity factor=2.8; PNA:DNA=5c:8a.
Test [34] relates to Nucleic Acid. In words: Percentage of cleavage in single stranded peptide nucleic acid (PNA) DNA duplex was measured after treating with compound for 300 min; selectivity factor=23.8; PNA:DNA=5a:6.
Test [35] concerns Nucleic Acid. In words: Percentage of cleavage in single stranded peptide nucleic acid was measured after treating with compound for 300 min; selectivity factor=4.6; PNA:DNA=5a:6 (with NaCl 0.5 M).
Test [36] concerns Nucleic Acid. In words: Percentage of cleavage in single stranded peptide nucleic acid (PNA) DNA duplex was measured after treating with compound for 300 min; selectivity factor=4.6; PNA:DNA=5a:6 (with NaCl 0.5 M).
In test [37] the test system is Nucleic Acid. In words: Percentage of cleavage in single stranded peptide nucleic acid was measured after treating with compound for 0.5 min; selectivity factor=0.9; PNA:DNA=5a:6.
For test [38], the system named is Nucleic Acid. As to the kind of experiment: Percentage of cleavage in single stranded peptide nucleic acid (PNA) DNA duplex was measured after treating with compound for 0.5 min; selectivity factor=0.9; PNA:DNA=5a:6.

Molecules are shown by their SMILES.

Turning to `O=C(O)CCS`, the Cleavage in the test with Nucleic Acid [1] stood at 52.3%; with Nucleic Acid [2], 78.9%.

As for `O=C(O)c1ccccc1P(c1ccccc1)c1ccccc1`, the Cleavage with Nucleic Acid [3] was determined as 69.1%; with Nucleic Acid [4] it was 43.7%.

As for `O=C(O)CCP(CCC(=O)O)CCC(=O)O`, the Cleavage was 100% in the test with Nucleic Acid [5]; 100% in the test on Nucleic Acid [6]; 97.6% with Nucleic Acid [7]; 97.6% with Nucleic Acid [8]; 70.7% in the test with Nucleic Acid [9]; 98.6% in the test on Nucleic Acid [10]. Also, the Cleavage came to 1.8% with Nucleic Acid [11]; 10.8% in the test with Nucleic Acid [12]; 1.7% with Nucleic Acid [13]; 4.2% in the test on Nucleic Acid [14]; 4.4% with Nucleic Acid [15]; 3.8% in the test on Nucleic Acid [16]. The Cleavage came to 31.2% in the test with Nucleic Acid [17], 31.2% with Nucleic Acid [18], 97.6% in the test with Nucleic Acid [19] and 31.2% in the test on Nucleic Acid [20].

Take `OCC(S)C(S)CO` (stereo not drawn): the results for the Cleavage in the test with Nucleic Acid [21] and with Nucleic Acid [22] were 7.6% and 77.2%, respectively.

In the case of `NC(CS)C(=O)O` (stereo not drawn), the results for the Cleavage in the test on Nucleic Acid [23] and in the test with Nucleic Acid [24] were 16.2% and 28.4%, respectively.

Consider `NCCS`, for which the values for the Cleavage in the test on Nucleic Acid [25] and in the test with Nucleic Acid [26] were 86.8% and 56.1%, respectively.

As for `O=C(O)c1ccc(P(c2ccccc2)c2ccccc2)cc1`, the values for the Cleavage in the test with Nucleic Acid [27] and in the test with Nucleic Acid [28] were 92.9% and 88.6%, respectively.

`O=S(=O)(O)c1ccc(P(c2ccc(S(=O)(=O)O)cc2)c2ccc(S(=O)(=O)O)cc2)cc1`: the Cleavage turned out to be 91.1% with Nucleic Acid [29]; 95.2% with Nucleic Acid [30]; 88.1% in the test on Nucleic Acid [31]; 9% in the test with Nucleic Acid [32]; 34.6% in the test on Nucleic Acid [33]; 3.7% in the test on Nucleic Acid [34]. The Cleavage with Nucleic Acid [35] is 97.6%; in the test on Nucleic Acid [36], 21%.

For the compound `CN(C)c1ccc(P(c2ccccc2)c2ccccc2)cc1`, the Cleavage in the test with Nucleic Acid [37] stood at 19.5%; with Nucleic Acid [38] it was 23%.
